The record followed here is paper PMC2191358 (The Journal of Experimental Medicine, 1994).

Residues, ends and D or L forms follow the SMILES beside them.

The IC50 is the concentration at which inhibition is half-maximal. A low value points to inhibition by little substance.

In data set [1] the target is TAP translocator (H-2d-derived microsomes) (Mus musculus, UniProt P21958+P36371). As to the kind of experiment: biochemical.
The test system of a further data set is mouse microsomes. In words: Efflux of labeled peptide from loaded mouse microsomes. As to conditions: mouse liver microsomes in the presence of ATP; HPLC; data not shown. The class given is biochemical. A general note: Liver microsomes are a subcellular fraction often used to study metabolism.
Data set [2] deals with mouse TAP1/TAP2 translocator. As to the kind of experiment: Accumulation of labeled peptide in mouse liver microsomes. The settings on record: microsomes from TAP1 mutant (C57Bl/6 x 129/SV) mice; means of duplicates.

TAP translocator (H-2d-derived microsomes), sequence (P21958 whole entry): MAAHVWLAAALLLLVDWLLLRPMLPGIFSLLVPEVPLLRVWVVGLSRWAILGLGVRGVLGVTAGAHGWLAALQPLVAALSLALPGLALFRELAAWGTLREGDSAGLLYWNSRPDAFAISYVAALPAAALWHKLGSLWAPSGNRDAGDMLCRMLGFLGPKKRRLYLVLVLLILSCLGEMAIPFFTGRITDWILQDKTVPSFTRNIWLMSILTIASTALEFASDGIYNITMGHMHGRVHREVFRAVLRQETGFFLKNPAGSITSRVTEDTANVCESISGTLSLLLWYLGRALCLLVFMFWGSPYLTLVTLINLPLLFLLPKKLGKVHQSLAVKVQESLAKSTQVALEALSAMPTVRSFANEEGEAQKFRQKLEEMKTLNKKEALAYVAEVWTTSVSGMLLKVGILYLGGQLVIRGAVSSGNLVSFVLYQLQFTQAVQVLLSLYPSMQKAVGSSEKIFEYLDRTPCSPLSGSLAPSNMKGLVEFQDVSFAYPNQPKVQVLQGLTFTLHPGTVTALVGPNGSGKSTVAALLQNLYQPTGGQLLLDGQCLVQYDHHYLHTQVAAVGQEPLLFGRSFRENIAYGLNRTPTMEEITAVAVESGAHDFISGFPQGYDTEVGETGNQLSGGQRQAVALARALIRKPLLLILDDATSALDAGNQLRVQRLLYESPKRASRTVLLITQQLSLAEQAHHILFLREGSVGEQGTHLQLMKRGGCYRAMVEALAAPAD
TAP translocator (H-2d-derived microsomes), sequence (P36371 whole entry): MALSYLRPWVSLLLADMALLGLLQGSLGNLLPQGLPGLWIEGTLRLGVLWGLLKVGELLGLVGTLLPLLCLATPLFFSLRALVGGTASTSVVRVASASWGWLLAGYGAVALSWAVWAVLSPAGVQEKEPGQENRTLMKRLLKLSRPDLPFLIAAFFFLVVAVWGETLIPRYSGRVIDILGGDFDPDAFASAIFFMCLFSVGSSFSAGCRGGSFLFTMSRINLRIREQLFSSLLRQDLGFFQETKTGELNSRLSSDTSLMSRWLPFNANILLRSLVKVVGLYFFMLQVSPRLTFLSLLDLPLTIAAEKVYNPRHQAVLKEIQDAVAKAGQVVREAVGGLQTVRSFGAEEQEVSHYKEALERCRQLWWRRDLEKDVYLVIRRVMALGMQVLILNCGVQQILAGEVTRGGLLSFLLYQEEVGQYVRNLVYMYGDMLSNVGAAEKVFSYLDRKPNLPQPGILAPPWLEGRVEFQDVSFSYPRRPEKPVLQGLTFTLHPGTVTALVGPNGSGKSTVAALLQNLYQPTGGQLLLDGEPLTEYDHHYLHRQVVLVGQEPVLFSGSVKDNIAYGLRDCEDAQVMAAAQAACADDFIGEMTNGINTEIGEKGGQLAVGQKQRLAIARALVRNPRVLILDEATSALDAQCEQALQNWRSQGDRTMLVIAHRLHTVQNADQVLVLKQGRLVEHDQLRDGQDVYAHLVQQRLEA

In data set [1], `CC(C)C[C@H](NC(=O)[C@H](C)NC(=O)[C@H](CCCNC(=N)N)NC(=O)[C@@H](NC(=O)[C@H](CCCNC(=N)N)NC(=O)[C@H](CCC(N)=O)NC(=O)[C@H](Cc1ccc(O)cc1)NC(=O)[C@@H](N)[C@@H](C)O)[C@@H](C)O)C(=O)N[C@H](C(=O)O)C(C)C` (H-TYQRTRALV-OH) showed an IC50 of 3 µM.

Take `CC(C)C[C@H](NC(=O)[C@H](C)NC(=O)[C@@H]1CCCN1C(=O)[C@H](Cc1ccc(O)cc1)NC(=O)[C@H](CC(N)=O)NC(=O)CNC(=O)[C@@H]1CCCN1C(=O)[C@H](C)NC(=O)[C@@H](N)Cc1ccccc1)C(N)=O` [FAPGNYPAL]: in the data set on mouse microsomes, the “Integrity of material accumulated by and released from microsomes” value is “largely intact”. The same compound showed a 50% inhibitory concentration (IC50) in data set [1] of 3 µM.

On to TYNRTRALI, for which the “Accumulation of labeled peptide in TAP- microsomes” value in data set [2] is “do not accumulate”.
